Consider seven molecules from PubChem BioAssay (NCI).

Some test systems named below: MDA-MB-231 breast; COLO 205 colon; UACC-257 melanoma; T-47D breast; HCT-116 colon; SK-MEL-2 melanoma; SK-MEL-28 melanoma; MCF7 breast; LOX IMVI melanoma; NCI-H23 lung; BT-549 breast; HL-60(TB) leukemia; EKVX NSCLC; OVCAR-4 ovarian; A549 NSCLC; SK-MEL-5 melanoma.
Holding throughout (experiment): NCI tumour cell line growth inhibition, 48 h

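Cells were grown in 96-well plates and exposed to each compound for 48 hours at five concentrations; endpoints were interpolated linearly between bracketing concentrations, or set to the highest concentration if not reached. TGI denotes the concentration required for complete inhibition of growth.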 Where a SMILES comes first, the peptide text is derived from it. [ ]: non-standard residue; d: D form. β3hI = CC[CH](C)[CH](N)CC(=O)O

In the case of `Cn1c2ccccc2c(=NNc2ccccc2C(=O)O)c2ccccc21`, the TGI in the experiment with MDA-MB-231 breast came out at 59.1 µM; in the experiment with COLO 205 colon, 34.1 µM; with UACC-257 melanoma it was 51.5 µM; with T-47D breast, 88.3 µM; with HCT-116 colon, 37.7 µM; in the experiment on SK-MEL-2 melanoma it was 43.7 µM. For the same molecule, the TGI amounted to 57.5 µM in the experiment on SK-MEL-28 melanoma; 30.5 µM in the experiment on MCF7 breast; 25.6 µM in the experiment on LOX IMVI melanoma; 76.8 µM with NCI-H23 lung; 61 µM with BT-549 breast; 44.5 µM in the experiment with HL-60(TB) leukemia. Also, the TGI in the experiment with EKVX NSCLC was found to be 38 µM; in the experiment on OVCAR-4 ovarian, 44.9 µM; in the experiment with A549 NSCLC, 77.2 µM; in the experiment on SK-MEL-5 melanoma, 28 µM.
For the molecule `CCC(C)C(CC(=O)N1CCCC1C(=O)NC(C(=O)NC(C(=O)NCC(=O)NC(CC(N)=O)C(=O)NC(C(=O)NC(C(=O)NC(CCCCN)C(N)=O)C(C)CC)C(C)CC)C(C)C)C(C)CC)NC(=O)C(N)C(C)CC` (stereo not drawn) (H-I[β3hI]PIVGNIIK-NH2; configuration not given here), the TGI in the experiment with MDA-MB-231 breast, in the experiment on COLO 205 colon, with UACC-257 melanoma, in the experiment with T-47D breast, in the experiment with HCT-116 colon and in the experiment on SK-MEL-2 melanoma was over 50 µM in each case. Besides, the TGI in the experiment on SK-MEL-28 melanoma, in the experiment with MCF7 breast, in the experiment with LOX IMVI melanoma, in the experiment with NCI-H23 lung, in the experiment on BT-549 breast and in the experiment with HL-60(TB) leukemia was over 50 µM in each case. The TGI in the experiment on EKVX NSCLC, in the experiment on OVCAR-4 ovarian, in the experiment with A549 NSCLC and in the experiment on SK-MEL-5 melanoma was over 50 µM in each case.
As to `O=c1[nH]nc(Cc2ccc(Cl)cc2)n1/N=C\c1ccc(/C=N/n2c(Cc3ccc(Cl)cc3)n[nH]c2=O)cc1`, the TGI in the experiment with MDA-MB-231 breast is 70.5 µM; in the experiment with COLO 205 colon, over 100 µM; with UACC-257 melanoma, over 100 µM; with T-47D breast, over 100 µM; in the experiment with HCT-116 colon it was over 100 µM; with SK-MEL-2 melanoma, over 100 µM. In addition, the TGI in the experiment on SK-MEL-28 melanoma, in the experiment with MCF7 breast, in the experiment on LOX IMVI melanoma, with NCI-H23 lung, in the experiment on BT-549 breast and in the experiment on HL-60(TB) leukemia was over 100 µM each time. The TGI with EKVX NSCLC, in the experiment with OVCAR-4 ovarian, in the experiment on A549 NSCLC and in the experiment on SK-MEL-5 melanoma was over 100 µM each time.
Regarding `CC1(C)CN=C(Nc2cccc(C(F)(F)F)c2)S1`, the TGI was 16.3 µM with MDA-MB-231 breast; over 100 µM in the experiment with COLO 205 colon; over 100 µM with UACC-257 melanoma; over 100 µM with T-47D breast; over 100 µM in the experiment with HCT-116 colon; over 100 µM with SK-MEL-2 melanoma. Moreover, the TGI in the experiment on SK-MEL-28 melanoma, in the experiment with MCF7 breast, in the experiment on LOX IMVI melanoma, with NCI-H23 lung, in the experiment with BT-549 breast and in the experiment on HL-60(TB) leukemia was over 100 µM throughout. Also, the TGI in the experiment on EKVX NSCLC, in the experiment on OVCAR-4 ovarian, in the experiment on A549 NSCLC and in the experiment with SK-MEL-5 melanoma was over 100 µM in each case.
In the case of `NCCCN1CCN(CC(=O)O)CCN(CCCN)CCN(CC(=O)O)CC1`, the TGI with MDA-MB-231 breast was over 100 µM; with COLO 205 colon it was over 100 µM; in the experiment on UACC-257 melanoma, over 100 µM; in the experiment with T-47D breast, over 100 µM; with HCT-116 colon, over 100 µM; in the experiment on SK-MEL-2 melanoma, over 76.1 µM. Further, the TGI with SK-MEL-28 melanoma, in the experiment on MCF7 breast, in the experiment with LOX IMVI melanoma, in the experiment on NCI-H23 lung, in the experiment on BT-549 breast and in the experiment with HL-60(TB) leukemia was over 100 µM in each case. For the same molecule, the TGI with EKVX NSCLC is over 100 µM; in the experiment on OVCAR-4 ovarian it was over 100 µM; in the experiment with A549 NSCLC, over 100 µM; with SK-MEL-5 melanoma, 21.3 µM.
Regarding `CC(=O)OCC1OC(n2c(N)c(C#N)c(-c3ccc(C)cc3)c(C#N)c2=S)C(OC(C)=O)C(OC(C)=O)C1OC(C)=O` (configuration not stated), the TGI is over 100 µM in the experiment with MDA-MB-231 breast; 29.4 µM in the experiment on COLO 205 colon; 39.7 µM with UACC-257 melanoma; 47.8 µM in the experiment with T-47D breast; over 100 µM in the experiment on HCT-116 colon; 28.5 µM in the experiment on SK-MEL-2 melanoma. Also, the TGI is over 100 µM with SK-MEL-28 melanoma; 51.3 µM in the experiment on MCF7 breast; over 100 µM in the experiment with LOX IMVI melanoma; 51.9 µM in the experiment with NCI-H23 lung; over 100 µM in the experiment with BT-549 breast; over 100 µM in the experiment with HL-60(TB) leukemia. The TGI is 34.7 µM in the experiment with EKVX NSCLC, over 100 µM with OVCAR-4 ovarian, 29.5 µM with A549 NSCLC and 23.2 µM in the experiment on SK-MEL-5 melanoma.
For the molecule `O=C(O)CC/C(=N\Nc1nsc2ccccc12)c1ccc(Cl)cc1`, the TGI is 93.2 µM with MDA-MB-231 breast; over 100 µM in the experiment on COLO 205 colon; over 67.4 µM with UACC-257 melanoma; over 100 µM in the experiment on T-47D breast; 68.9 µM in the experiment with HCT-116 colon; over 100 µM with SK-MEL-2 melanoma. For the same molecule, the TGI in the experiment with SK-MEL-28 melanoma is 37.4 µM; in the experiment on MCF7 breast it was over 100 µM; in the experiment with LOX IMVI melanoma, 25.7 µM; in the experiment on NCI-H23 lung, 59.2 µM; in the experiment on BT-549 breast, 74.3 µM; in the experiment with HL-60(TB) leukemia, 59.9 µM. The TGI with EKVX NSCLC is over 100 µM; in the experiment on OVCAR-4 ovarian, over 80.2 µM; with A549 NSCLC, over 82.2 µM; in the experiment on SK-MEL-5 melanoma, over 31.6 µM.
